Experimental data from the RepoRT retention time repository.

assay: HILIC, Waters Atlantis Premier BEH Z-HILIC, 100 × 2.1 mm, 1.7 µm, 40 °C, 0.15 mL/min, estimated dead time 1.5 min; A: water + 20 mM ammonium carbonate + 5 µM medronic acid; B: 10% water + 90% acetonitrile + 2 mM ammonium carbonate + 0.5 µM medronic acid; gradient (min/%B) 0/90 18/55 18.1/20 21.5/20 22/90 23.5/90 25.5/90; settings: stereoisomer not certain

Point of comparison: `O=P(O)(O)OCC1OC(O)C(O)C(O)C1O` (configuration not stated) [Glucose-6-phosphate], LC retention time 11.7 min. Against it:
- O=C(O)CCC(=O)C(=O)O [2-Oxoglutaric acid] — within 1.5-fold, 8.68 min
- O=C(O)CCC(O)C(=O)O (configuration not stated) [2-hydroxy glutaric acid] — within 1.5-fold, 9.22 min
- Nc1ncnc2c1ncn2C1OC(COP(=O)(O)OP(=O)(O)O)C(O)C1O (configuration not stated) [ADP] — within 1.5-fold, 11.1 min
- Nc1ncnc2c1ncn2C1OC(COP(=O)(O)O)C(O)C1O (configuration not stated) [AMP] — within 1.5-fold, 9.07 min
- Nc1ncnc2c1ncn2C1OC(COP(=O)(O)OP(=O)(O)OP(=O)(O)O)C(O)C1O (configuration not stated) [ATP] — within 1.5-fold, 12.9 min
- CC(=O)SCCNC(=O)CCNC(=O)C(O)C(C)(C)COP(=O)(O)OP(=O)(O)OCC1OC(n2cnc3c(N)ncnc32)C(O)C1OP(=O)(O)O (configuration not stated) [Acetyl-CoA] — within 1.5-fold, 10.1 min
- Nc1ncnc2c1ncn2C1OC(CO)C(O)C1O (configuration not stated) [Adenosine] — 3.7-fold lower, 3.18 min
- NC(N)=NCCCC(N)C(=O)O (configuration not stated) [Arginine] — 1.6-fold higher, 18.4 min
- O=C(O)CCCCC1SCC2NC(=O)NC21 (configuration not stated) [Biotin] — 2.6-fold lower, 4.58 min
- C[N+](C)(C)CC(O)CC(=O)[O-] (configuration not stated) [Carnitine] — within 1.5-fold, 9.89 min
- O=C(O)CC(O)(CC(=O)O)C(=O)O [Citric acid] — within 1.5-fold, 12.8 min
- CC(C)(COP(=O)(O)OP(=O)(O)OCC1OC(n2cnc3c(N)ncnc32)C(O)C1OP(=O)(O)O)C(O)C(=O)NCCC(=O)NCCS (configuration not stated) [CoenzymeA] — within 1.5-fold, 11.8 min
- Cc1cc2nc3c(=O)[nH]c(=O)nc-3n(CC(O)C(O)C(O)COP(=O)(O)OP(=O)(O)OCC3OC(n4cnc5c(N)ncnc54)C(O)C3O)c2cc1C (configuration not stated) [FAD] — 1.7-fold lower, 7.03 min
- O=C(CO)C(O)C(O)C(O)COP(=O)(O)O (configuration not stated) [Fructose 6-phosphate] — within 1.5-fold, 10.8 min
- O=P(O)(O)OCC1OC(O)(COP(=O)(O)O)C(O)C1O (configuration not stated) [Fructose-1,6-bisphosphate] — within 1.5-fold, 14.8 min
- Nc1nc2c(ncn2C2OC(COP(=O)(O)OP(=O)(O)OP(=O)(O)O)C(O)C2O)c(=O)[nH]1 (configuration not stated) [GTP] — within 1.5-fold, 15.3 min
- NC(CCC(=O)O)C(=O)O (configuration not stated) [Glutamic acid] — within 1.5-fold, 9.23 min
- NC(=O)CCC(N)C(=O)O (configuration not stated) [Glutamine] — within 1.5-fold, 10.3 min
- O=P(O)(O)OCC(O)CO (configuration not stated) [Glycerol-3-phosphate] — within 1.5-fold, 9.92 min
- OCC1OC(O)C(O)C(O)C1O (configuration not stated) [Hexose] — 1.6-fold lower, 7.41 min
- O=C(O)CC(C(=O)O)C(O)C(=O)O (configuration not stated) [Isocitric acid] — within 1.5-fold, 12.8 min
- CCC(C)C(N)C(=O)O (configuration not stated) [Isoleucine] — 1.8-fold lower, 6.5 min
- CC(O)C(=O)O (configuration not stated) [Lactic Acid] — 3.7-fold lower, 3.15 min
- CC(C)CC(N)C(=O)O (configuration not stated) [Leucine] — 1.9-fold lower, 6.22 min
- NCCCCC(N)C(=O)O (configuration not stated) [Lysine] — 1.6-fold higher, 18.6 min
- NC(=O)C1=CN(C2OC(COP(=O)(O)OP(=O)(O)OCC3OC(n4cnc5c(N)ncnc54)C(O)C3O)C(O)C2O)C=CC1 (configuration not stated) [NADH] — within 1.5-fold, 8.31 min
- NC(=O)C1=CN(C2OC(COP(=O)(O)OP(=O)(O)OCC3OC(n4cnc5c(N)ncnc54)C(OP(=O)(O)O)C3O)C(O)C2O)C=CC1 (configuration not stated) [NADPH] — within 1.5-fold, 13.3 min
- NC(=O)c1ccc[n+](C2OC(COP(=O)(O)OP(=O)(O)OCC3OC(n4cnc5c(N)ncnc54)C(OP(=O)(O)O)C3O)C(O)C2O)c1 (configuration not stated) [NADP] — within 1.5-fold, 13.1 min
- NC(=O)c1ccc[n+](C2OC(COP(=O)(O)OP(=O)(O)OCC3OC(n4cnc5c(N)ncnc54)C(O)C3O)C(O)C2O)c1 (configuration not stated) [NAD] — within 1.5-fold, 9.49 min
- C=C(OP(=O)(O)O)C(=O)O [PEP] — within 1.5-fold, 12.9 min
- O=C(O)C(CO)OP(=O)(O)O (configuration not stated) [Phosphoglyceric acid A] — within 1.5-fold, 12.7 min
- O=C(O)CCC(=O)O [Succinic Acid] — within 1.5-fold, 9.23 min
- O=C(CO)COP(=O)(O)O [Triose phosphate] — within 1.5-fold, 9.78 min
- CC(=O)NC1C(OP(=O)(O)OP(=O)(O)OCC2OC(n3ccc(=O)[nH]c3=O)C(O)C2O)OC(CO)C(O)C1O (configuration not stated) [UDP-GlcNAc] — within 1.5-fold, 9.52 min
- CCC(=O)OC(CC(=O)[O-])C[N+](C)(C)C (configuration not stated) [carnitine-C3] — 1.8-fold lower, 6.42 min
- O=C1CC(C(=O)O)NC(=O)N1 (configuration not stated) [dihydroorotic acid] — 3-fold lower, 3.92 min
